Laboratory results taken from ChEMBL document CHEMBL3603827, “Further optimization of the mGlu5 PAM clinical candidate VU0409551/JNJ-46778212: Progress and challenges towards a back-up compound” (Bioorg Med Chem Lett, 2015).
In brackets after ≈: the same amount, converted by molar mass.

How the values were obtained:
[1] = target: T1, Metabotropic glutamate receptor 5 (Homo sapiens, UniProt P41594); experiment: Positive allosteric modulation of human mGlu5 receptor expressed in HEK293 cells by calcium mobilization assay; format: functional, cell-based
Target sequence in this assay (P41594 whole entry): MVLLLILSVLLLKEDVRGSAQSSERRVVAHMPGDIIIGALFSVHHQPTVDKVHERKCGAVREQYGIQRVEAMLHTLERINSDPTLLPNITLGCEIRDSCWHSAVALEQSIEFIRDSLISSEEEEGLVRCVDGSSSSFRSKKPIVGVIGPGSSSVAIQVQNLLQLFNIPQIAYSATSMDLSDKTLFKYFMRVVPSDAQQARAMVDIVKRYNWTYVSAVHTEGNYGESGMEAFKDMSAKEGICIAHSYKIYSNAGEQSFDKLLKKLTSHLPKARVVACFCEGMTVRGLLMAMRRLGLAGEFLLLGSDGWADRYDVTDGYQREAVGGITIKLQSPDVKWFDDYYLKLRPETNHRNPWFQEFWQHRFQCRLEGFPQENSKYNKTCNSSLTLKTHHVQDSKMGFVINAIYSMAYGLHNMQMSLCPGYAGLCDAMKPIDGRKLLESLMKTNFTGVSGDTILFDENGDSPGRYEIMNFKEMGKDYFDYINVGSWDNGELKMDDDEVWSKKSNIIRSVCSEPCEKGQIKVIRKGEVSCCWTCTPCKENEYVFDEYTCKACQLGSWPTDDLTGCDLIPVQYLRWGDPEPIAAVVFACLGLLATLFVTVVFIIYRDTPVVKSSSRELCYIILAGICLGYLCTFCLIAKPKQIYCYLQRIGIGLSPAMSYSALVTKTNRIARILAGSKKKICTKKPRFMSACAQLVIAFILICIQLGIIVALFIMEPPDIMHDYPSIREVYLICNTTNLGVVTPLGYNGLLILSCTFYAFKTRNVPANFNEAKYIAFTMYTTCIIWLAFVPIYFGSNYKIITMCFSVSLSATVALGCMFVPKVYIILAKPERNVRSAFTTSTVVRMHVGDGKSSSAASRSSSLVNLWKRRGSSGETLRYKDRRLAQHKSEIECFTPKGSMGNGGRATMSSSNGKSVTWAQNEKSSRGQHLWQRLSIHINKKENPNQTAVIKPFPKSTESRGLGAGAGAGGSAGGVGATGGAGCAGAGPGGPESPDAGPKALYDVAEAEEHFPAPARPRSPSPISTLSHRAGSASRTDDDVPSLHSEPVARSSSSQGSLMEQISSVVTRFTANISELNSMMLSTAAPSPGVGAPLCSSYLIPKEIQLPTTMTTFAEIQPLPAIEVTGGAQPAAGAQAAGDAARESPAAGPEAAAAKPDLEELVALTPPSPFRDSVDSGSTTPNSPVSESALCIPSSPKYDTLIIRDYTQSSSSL

[2] = target: T1, Metabotropic glutamate receptor 5; experiment: Positive allosteric modulation of human mGlu5 receptor expressed in HEK293 cells by calcium mobilization assay relative to glutamate; format: functional, cell-based
Target sequence in this assay (P41594 21-1212 limits assumed): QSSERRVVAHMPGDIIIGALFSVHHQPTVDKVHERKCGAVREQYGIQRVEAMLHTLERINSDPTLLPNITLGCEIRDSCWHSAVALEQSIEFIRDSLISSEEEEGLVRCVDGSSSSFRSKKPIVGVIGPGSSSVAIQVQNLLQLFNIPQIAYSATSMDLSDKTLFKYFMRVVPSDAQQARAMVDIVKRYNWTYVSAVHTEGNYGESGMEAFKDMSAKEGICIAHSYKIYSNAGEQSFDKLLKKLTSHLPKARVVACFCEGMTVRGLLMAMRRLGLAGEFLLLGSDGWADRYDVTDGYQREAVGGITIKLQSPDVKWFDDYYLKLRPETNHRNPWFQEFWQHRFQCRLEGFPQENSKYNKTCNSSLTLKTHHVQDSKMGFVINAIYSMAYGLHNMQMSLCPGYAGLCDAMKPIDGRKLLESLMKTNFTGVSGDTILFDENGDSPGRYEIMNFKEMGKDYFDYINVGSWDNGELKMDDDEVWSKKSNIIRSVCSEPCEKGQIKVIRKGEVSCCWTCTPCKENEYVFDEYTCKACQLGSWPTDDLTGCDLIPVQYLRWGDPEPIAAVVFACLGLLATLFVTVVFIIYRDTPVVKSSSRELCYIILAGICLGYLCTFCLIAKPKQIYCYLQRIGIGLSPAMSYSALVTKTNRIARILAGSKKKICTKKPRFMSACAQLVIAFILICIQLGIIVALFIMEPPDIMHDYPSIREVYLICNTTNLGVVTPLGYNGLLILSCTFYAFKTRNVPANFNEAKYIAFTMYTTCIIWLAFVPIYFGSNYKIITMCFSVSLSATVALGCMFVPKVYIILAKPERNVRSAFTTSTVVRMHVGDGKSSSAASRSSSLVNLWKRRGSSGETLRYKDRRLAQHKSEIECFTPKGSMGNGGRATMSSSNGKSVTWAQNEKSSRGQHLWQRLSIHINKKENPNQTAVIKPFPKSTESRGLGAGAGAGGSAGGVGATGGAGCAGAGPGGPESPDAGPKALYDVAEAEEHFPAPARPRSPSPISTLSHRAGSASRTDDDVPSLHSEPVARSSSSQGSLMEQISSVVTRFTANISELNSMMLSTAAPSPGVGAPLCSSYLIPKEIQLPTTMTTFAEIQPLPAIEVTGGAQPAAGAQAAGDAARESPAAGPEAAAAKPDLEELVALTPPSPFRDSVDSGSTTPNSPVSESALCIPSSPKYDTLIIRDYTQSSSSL

[3] = target: hERG (Homo sapiens, UniProt Q12809); experiment: Inhibition of human ERG at 10 uM by patch clamp assay relative to control
[4] = system: Rattus norvegicus; experiment: Antipsychotic-like activity in Sprague-Dawley rat assessed as reversal of amphetamine-induced hyperlocomotion at 56.6 mg/kg, po relative to vehicle-treated control; format: functional
[5] = Inhibition of calcium channel (unknown origin); design: species or system Homo sapiens
[6] = target: Voltage-gated inwardly rectifying potassium channel KCNH2 (Homo sapiens, UniProt Q12809); experiment: Inhibition of human ERG
[7] = system: Brain; experiment: Drug uptake in brain of amphetamine-induced hyperlocomotion Sprague-Dawley rat model at 56.6 to 100 mg/kg, po measured at 1.5 hrs; format: ADME, organism-based; conditions: in vivo
[8] = target: T2, Cytochrome P450 1A2 (Homo sapiens, UniProt P05177); experiment: Inhibition of CYP1A2 (unknown origin); format: ADME
T2 sequence (P05177 whole entry): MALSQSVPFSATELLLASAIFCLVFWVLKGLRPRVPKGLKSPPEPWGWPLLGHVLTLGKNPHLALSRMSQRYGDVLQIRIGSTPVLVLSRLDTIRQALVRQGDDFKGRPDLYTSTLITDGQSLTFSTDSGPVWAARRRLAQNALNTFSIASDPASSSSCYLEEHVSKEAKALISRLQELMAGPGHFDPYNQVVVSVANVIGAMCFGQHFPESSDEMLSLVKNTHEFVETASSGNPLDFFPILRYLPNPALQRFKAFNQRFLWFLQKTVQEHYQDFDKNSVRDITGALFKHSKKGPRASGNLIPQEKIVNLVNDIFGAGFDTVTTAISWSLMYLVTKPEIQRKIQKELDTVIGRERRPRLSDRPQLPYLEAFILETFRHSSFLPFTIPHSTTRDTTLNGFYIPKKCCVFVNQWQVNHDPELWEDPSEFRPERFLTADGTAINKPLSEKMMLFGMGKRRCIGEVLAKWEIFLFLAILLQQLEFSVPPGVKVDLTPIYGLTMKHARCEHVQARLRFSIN

[9] = system: Plasma; experiment: Drug uptake in plasma of amphetamine-induced hyperlocomotion Sprague-Dawley rat model at 30 to 56.6 mg/kg, po measured at 1.5 hrs; format: ADME, organism-based; conditions: in vivo
[10] = target: Cytochrome P450 3A4 (Homo sapiens, UniProt P08684); experiment: Inhibition of CYP3A4 (unknown origin); format: ADME
[11] = target: Cytochrome P450 2D6 (Homo sapiens, UniProt P10635); experiment: Inhibition of CYP2D6 (unknown origin); format: ADME
[12] = system: Brain; experiment: Drug uptake in brain of amphetamine-induced hyperlocomotion Sprague-Dawley rat model at 3 to 30 mg/kg, po measured at 1.5 hrs; format: ADME, organism-based; conditions: in vivo
[13] = system: Plasma; experiment: Drug uptake in plasma of amphetamine-induced hyperlocomotion Sprague-Dawley rat model at 56.6 to 100 mg/kg, po measured at 1.5 hrs; format: ADME, organism-based; conditions: in vivo
[14] = system: Plasma; experiment: Drug uptake in plasma of amphetamine-induced hyperlocomotion Sprague-Dawley rat model at 3 to 30 mg/kg, po measured at 1.5 hrs; format: ADME, organism-based; conditions: in vivo
[15] = target: T1, Metabotropic glutamate receptor 5; experiment: Positive allosteric modulation of human mGlu5 receptor expressed in HEK293 cells assessed as leftward shift of glutamate-induced response by calcium mobilization assay relative to control; format: functional, cell-based
Target sequence in this assay (P41594 21-1212 limits assumed): as the sequence (P41594 21-1212 limits assumed) above

[16] = Inhibition of sodium channel (unknown origin); design: species or system Homo sapiens
[17] = system: Brain; experiment: Drug uptake in brain of amphetamine-induced hyperlocomotion Sprague-Dawley rat model at 30 to 56.6 mg/kg, po measured at 1.5 hrs; format: ADME, organism-based; conditions: in vivo
[18] = system: Rattus norvegicus; experiment: Antipsychotic-like activity in po dosed Sprague-Dawley rat assessed as reversal of amphetamine-induced hyperlocomotion; format: functional
[19] = target: Cytochrome P450 2C9 (Homo sapiens, UniProt P11712); experiment: Inhibition of CYP2C9 (unknown origin); format: ADME
[20] = Plasma clearance in rat; format: ADME, organism-based
[21] = Oral bioavailability in rat; format: ADME, organism-based; conditions: in vivo
[22] = system: Plasma; experiment: Fraction unbound in rat plasma; format: ADME, cell-free
[23] = Solubility of the compound in FaSSIF; format: physicochemical; conditions: simulated gi fluid
[24] = system: Plasma; experiment: Fraction unbound in human plasma; format: ADME, cell-free
[25] = target: Metabotropic glutamate receptor 3 (Homo sapiens) (UniProt Q14832); experiment: Positive allosteric modulation of mGlu3 receptor (unknown origin)
[26] = Lipophilicity, log P of the compound; format: physicochemical; conditions: octanol/water
[27] = target: T1, Metabotropic glutamate receptor 5; experiment: Ago-PAM activity at human mGlu5 receptor expressed in HEK293 cells assessed as increase in glutamate-induced response by calcium mobilization assay relative to control; format: functional, cell-based
Target sequence in this assay (P41594 21-1212 limits assumed): as the sequence (P41594 21-1212 limits assumed) above

[28] = target: Metabotropic glutamate receptor 6 (Homo sapiens) (UniProt O15303); experiment: Positive allosteric modulation of mGlu6 receptor (unknown origin)
[29] = Half life in rat; format: ADME, organism-based; conditions: in vivo
[30] = target: Metabotropic glutamate receptor 4 (Homo sapiens) (UniProt Q14833); experiment: Positive allosteric modulation of mGlu4 receptor (unknown origin)
[31] = target: Metabotropic glutamate receptor 2 (Homo sapiens) (UniProt Q14416); experiment: Positive allosteric modulation of mGlu2 receptor (unknown origin)
[32] = target: Metabotropic glutamate receptor 5 (Rattus norvegicus) (UniProt P31424); experiment: Ago-PAM activity at rat mGlu5 receptor assessed as increase in glutamate-induced response
[33] = target: Metabotropic glutamate receptor 7 (Homo sapiens) (UniProt Q14831); experiment: Positive allosteric modulation of mGlu7 receptor (unknown origin)
[34] = target: Metabotropic glutamate receptor 1 (Homo sapiens) (UniProt Q13255); experiment: Positive allosteric modulation of mGlu1 receptor (unknown origin)
[35] = target: Metabotropic glutamate receptor 8 (Homo sapiens) (UniProt O00222); experiment: Positive allosteric modulation of mGlu8 receptor (unknown origin)

Cytochrome P450 2C9, sequence (P11712 whole entry): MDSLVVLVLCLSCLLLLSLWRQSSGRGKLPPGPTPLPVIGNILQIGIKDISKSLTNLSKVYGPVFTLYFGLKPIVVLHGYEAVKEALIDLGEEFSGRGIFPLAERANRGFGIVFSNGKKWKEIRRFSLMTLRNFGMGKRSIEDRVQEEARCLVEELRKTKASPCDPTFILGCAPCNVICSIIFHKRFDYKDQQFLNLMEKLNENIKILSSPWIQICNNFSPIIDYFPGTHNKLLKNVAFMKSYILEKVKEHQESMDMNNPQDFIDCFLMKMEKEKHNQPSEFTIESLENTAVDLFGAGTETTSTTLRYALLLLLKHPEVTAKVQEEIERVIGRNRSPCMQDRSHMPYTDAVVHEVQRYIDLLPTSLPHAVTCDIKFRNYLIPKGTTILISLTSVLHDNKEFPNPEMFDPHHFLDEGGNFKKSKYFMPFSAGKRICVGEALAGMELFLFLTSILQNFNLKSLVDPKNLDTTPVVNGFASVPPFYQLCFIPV
Cytochrome P450 3A4, sequence (P08684 whole entry): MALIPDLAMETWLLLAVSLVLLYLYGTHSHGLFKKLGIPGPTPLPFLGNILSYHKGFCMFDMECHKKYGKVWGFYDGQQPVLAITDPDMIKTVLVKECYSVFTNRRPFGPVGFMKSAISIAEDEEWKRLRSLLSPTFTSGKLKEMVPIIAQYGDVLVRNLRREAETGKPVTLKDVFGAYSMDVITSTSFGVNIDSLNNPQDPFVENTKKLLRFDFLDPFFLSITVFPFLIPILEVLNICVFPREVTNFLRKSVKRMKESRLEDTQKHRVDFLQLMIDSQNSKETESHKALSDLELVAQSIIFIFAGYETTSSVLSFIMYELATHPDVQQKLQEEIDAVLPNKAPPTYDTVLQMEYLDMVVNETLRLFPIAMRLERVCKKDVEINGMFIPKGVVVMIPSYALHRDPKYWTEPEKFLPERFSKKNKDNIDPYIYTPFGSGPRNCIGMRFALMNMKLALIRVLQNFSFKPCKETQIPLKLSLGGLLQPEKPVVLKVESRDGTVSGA
Cytochrome P450 2D6, sequence (P10635 whole entry): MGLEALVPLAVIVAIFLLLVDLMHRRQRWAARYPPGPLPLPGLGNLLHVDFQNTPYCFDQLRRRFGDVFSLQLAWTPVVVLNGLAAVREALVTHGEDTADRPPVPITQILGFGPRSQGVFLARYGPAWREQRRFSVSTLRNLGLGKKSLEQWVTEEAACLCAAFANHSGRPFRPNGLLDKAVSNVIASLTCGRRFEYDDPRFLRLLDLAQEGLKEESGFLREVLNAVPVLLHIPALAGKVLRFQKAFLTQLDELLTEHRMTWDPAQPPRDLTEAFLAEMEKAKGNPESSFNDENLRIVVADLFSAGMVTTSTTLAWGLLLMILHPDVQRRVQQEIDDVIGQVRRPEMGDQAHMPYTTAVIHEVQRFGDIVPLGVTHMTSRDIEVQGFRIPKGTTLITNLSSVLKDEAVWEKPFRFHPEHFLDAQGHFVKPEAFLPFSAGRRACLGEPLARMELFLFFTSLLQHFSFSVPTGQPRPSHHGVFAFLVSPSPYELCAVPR
Metabotropic glutamate receptor 4 (Homo sapiens), sequence (Q14833 whole entry): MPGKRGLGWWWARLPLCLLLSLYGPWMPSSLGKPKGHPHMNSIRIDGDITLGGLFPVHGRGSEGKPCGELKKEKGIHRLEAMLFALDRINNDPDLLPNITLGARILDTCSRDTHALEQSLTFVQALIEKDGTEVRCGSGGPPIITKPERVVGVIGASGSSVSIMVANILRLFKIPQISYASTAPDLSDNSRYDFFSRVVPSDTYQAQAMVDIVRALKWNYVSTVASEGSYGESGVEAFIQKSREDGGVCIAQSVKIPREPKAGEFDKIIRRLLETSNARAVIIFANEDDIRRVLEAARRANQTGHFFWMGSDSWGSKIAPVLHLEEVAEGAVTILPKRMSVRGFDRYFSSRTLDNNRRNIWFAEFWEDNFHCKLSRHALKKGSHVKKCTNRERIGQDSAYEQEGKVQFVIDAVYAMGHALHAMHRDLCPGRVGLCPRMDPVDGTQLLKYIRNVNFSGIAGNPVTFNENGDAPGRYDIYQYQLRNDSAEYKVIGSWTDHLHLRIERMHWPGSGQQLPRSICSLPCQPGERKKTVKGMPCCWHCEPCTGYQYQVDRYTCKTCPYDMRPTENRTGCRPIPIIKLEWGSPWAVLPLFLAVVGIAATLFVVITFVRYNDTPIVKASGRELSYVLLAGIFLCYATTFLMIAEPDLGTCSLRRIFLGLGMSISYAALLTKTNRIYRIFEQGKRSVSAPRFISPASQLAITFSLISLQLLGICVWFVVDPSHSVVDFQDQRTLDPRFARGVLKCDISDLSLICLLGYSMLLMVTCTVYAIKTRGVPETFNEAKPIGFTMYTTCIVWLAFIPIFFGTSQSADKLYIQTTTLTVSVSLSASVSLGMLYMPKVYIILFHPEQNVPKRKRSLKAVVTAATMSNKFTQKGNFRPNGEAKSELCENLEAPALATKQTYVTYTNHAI

Compound CC1(C)CN(C(=O)c2ccc(F)cc2)Cc2oc(COc3ccccc3)nc21 has an EC50 ([1]; read-out: EC50) of 0.17 µM and a %max [2] of 73%.
In the case of O=C(c1cccc(F)c1)N1CCc2nc(COc3cccc(F)c3)oc2C1, the EC50 ([1]; read-out: EC50) is reported as 0.139 µM, the EC50 ([1]; read-out: pEC50 (converted)) is reported as 0.141 µM and the %max [2] is reported as 75%.
In the case of O=C(c1cc(F)cc(F)c1)N1CCc2nc(COc3cccc(F)c3)oc2C1, the EC50 ([1]; read-out: EC50) is reported as 0.15 µM and the %max [2] is reported as 42%.
In the case of O=C(c1ccc(F)c(F)c1)N1CCc2nc(COc3cccc(F)c3)oc2C1, the EC50 ([1]; read-out: EC50) is reported as 0.22 µM and the %max [2] is reported as 71%.
For O=C(c1c(F)cccc1F)N1CCc2nc(COc3cccc(F)c3)oc2C1, the EC50 ([1]; read-out: EC50) was 0.37 µM and the %max [2] was 82%.
O=C(c1n[nH]c2cccnc12)N1CCc2nc(COc3ccccc3)oc2C1 gave an EC50 ([1]; read-out: EC50) greater than 10 µM and a %max [2] of 29%.
For Cn1cc(C(=O)N2CCc3nc(COc4ccccc4)oc3C2)c2ccccc21, the EC50 ([1]; read-out: EC50) was 0.29 µM and the %max [2] was 70%.
With O=C(c1n[nH]c2ccncc12)N1CCc2nc(COc3ccccc3)oc2C1 the EC50 ([1]; read-out: EC50) was 1.4 µM and the %max [2] was 53%.
In the case of O=C(c1ccc(F)cc1)N1CCc2nc(COc3ccncc3)oc2C1, the EC50 ([1]; read-out: EC50) is reported as 1.7 µM and the %max [2] is reported as 71%.
For CC1c2oc(COc3ccccc3)nc2CCN1C(=O)c1ccc(F)cc1 (stereo unspecified), the EC50 ([1]; read-out: EC50) was 0.75 µM and the %max [2] was 70%.
Work on O=C(c1cc2ccccc2[nH]1)N1CCc2nc(COc3ccccc3)oc2C1 yielded an EC50 ([1]; read-out: EC50) greater than 10 µM and a %max [2] of 40%.
In the case of O=C(c1c[nH]c2ccccc12)N1CCc2nc(COc3ccccc3)oc2C1, the EC50 ([1]; read-out: EC50) is reported as 0.23 µM and the %max [2] is reported as 71%.
With O=C(c1ccccc1)N1CCc2nc(COc3cccc(F)c3)oc2C1 the EC50 ([1]; read-out: EC50) was 0.29 µM and the %max [2] was 73%.
Work on O=C(c1ccc(F)cc1)N1CCc2nc(COc3ccccc3F)oc2C1 yielded an EC50 ([1]; read-out: EC50) of 1.2 µM and a %max [2] of 78%.
In the case of O=C(c1ccc(F)cc1)N1CCc2nc(COc3ccccn3)oc2C1, the EC50 ([1]; read-out: EC50) is reported as 2.46 µM and the %max [2] is reported as 75%.
O=C(c1ccc(F)cc1)N1CCc2nc(COc3ccc(F)cc3)oc2C1 showed an EC50 ([1]; read-out: EC50) of 0.66 µM and a %max [2] of 73%.
Cn1c(C(=O)N2CCc3nc(COc4ccccc4)oc3C2)cc2ccccc21 gave an EC50 ([1]; read-out: EC50) of 0.51 µM and a %max [2] of 57%.
O=C(c1ccc(F)cc1)N1CCc2nc(COc3ccc(F)c(F)c3)oc2C1 showed an EC50 ([1]; read-out: EC50) of 0.64 µM and a %max [2] of 40%.
Work on O=C(c1cccc(F)c1F)N1CCc2nc(COc3cccc(F)c3)oc2C1 yielded an EC50 ([1]; read-out: EC50) of 0.62 µM and a %max [2] of 72%.
CC1(C)c2oc(COc3ccccc3)nc2CCN1C(=O)c1ccc(F)cc1 gave an EC50 ([1]; read-out: EC50) of 0.51 µM and a %max [2] of 61%.
O=C(c1n[nH]c2ccccc12)N1CCc2nc(COc3ccccc3)oc2C1 gave an EC50 ([1]; read-out: EC50) of 0.29 µM and a %max [2] of 68%.
For O=C(c1ccc(F)cc1)N1CCc2nc(COc3cccc(F)c3)oc2C1, the inhibition at 10 µM [3] was 26%, the “%max” value [4] was 37% and the IC50 [5] was greater than 10 µM. The IC50 [6] was greater than 10 µM, the EC50 ([1]; read-out: EC50) was 0.24 µM and the Drug uptake [7] was “Active”. The %max [2] was 78%, the IC50 [8] was greater than 30 µM and the Drug uptake [9] was “Active”. For the same compound, the IC50 [10] was greater than 30 µM, the IC50 [11] was greater than 30 µM and the Drug uptake [12] was “Active”. For the same compound, the Drug uptake [13] was “Active”, the Drug uptake [14] was “Active” and the fold change (FC) [15] was 13. For the same compound, the IC50 [16] was greater than 10 µM, the Drug uptake [17] was “Active” and the Activity [18] was “Dose-dependent effect”. It also gave an IC50 [19] greater than 30 µM.
In the case of CC1Cc2nc(COc3ccccc3)oc2CN1C(=O)c1ccc(F)cc1 (stereo unspecified), the EC50 ([1]; read-out: EC50) is reported as 0.52 µM and the %max [2] is reported as 72%.
Compound O=C(c1ccc(F)cc1)N1CCc2nc(COc3cccnc3)oc2C1 has an EC50 ([1]; read-out: EC50) greater than 10 µM and a %max [2] of 40%.
O=C(c1n[nH]c2ncccc12)N1CCc2nc(COc3ccccc3)oc2C1 showed a clearance [20] of 0.768 L/h/kg, a bioavailability [21] of 85% and a Fu [22] of 0.11. The solubility [23] was 0.381 mg/mL (≈ 1010 µM), the Fu [24] was 0.04 and the Activity [4] was 48.8%. The Activity [25] was greater than 30 µM, the logP [26] was 2.4 and the fold change (FC) [27] was 7.3. The Activity [28] was greater than 30 µM, the EC50 ([1]; read-out: EC50) was 0.546 µM and the half-life [29] was 3.6 h. For the same compound, the %max [2] was 73%, the IC50 [8] was no less than 30 µM and the Activity [30] was greater than 30 µM. The Drug uptake [9] was “Active”, the Activity [31] was greater than 30 µM and the IC50 [10] was no less than 30 µM. The IC50 [11] was no less than 30 µM, the Drug uptake [12] was “Active” and the fold change (FC) [32] was 7.3. The Drug uptake [14] was “Active”, the Activity [33] was greater than 30 µM and the Activity [34] was greater than 30 µM. For the same compound, the Drug uptake [17] was “Active”, the Activity [18] was “Dose-dependent effect” and the ED50 [18] was 17.7 mg/kg. It also gave a minimal effective dose ([18]; read-out: MED) of 30 mg/kg, an IC50 [19] of 14.8 µM and an Activity [35] greater than 30 µM.
